According to patent publication US20240336602A1 (Katholieke Universiteit Leuven, priority 2020, published 2024):
pIC50: −log10 of the molar value.

Target: T1, mouse TRPM3a2 (mTRPM3) ion channel (Mus musculus, UniProt J9SQF3)
T1 construct: expressed in transfected cells; host or cells: flip-in HEK293
Assay: TRPM3 ion channel driven Ca2+ uptake, Fluo-4 AM assay (PS-stimulated, overexpressing flip-in HEK293 cells)
Assay type: cell-based
How it was run: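 Flip-in HEK293 cells overexpressing mTRPM3α2, loaded with Fluo-4 AM, were added to wells with compound plus 50 μM pregnenolone sulfate in Ca2+-containing Krebs buffer and read immediately (ex 485/em 535 nm). Percent inhibition was scaled between PS-plus-vehicle and positive-control-inhibitor signals.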

[1] = PS (50 μM) stimulated, cpd 001-199
[2] = PS (50 μM) stimulated Ca2+ influx, HEK293, cpds 200-299
[3] = PS (50 μM) stimulated, cpds. 500-599

T1 sequence (J9SQF3 1-1709 isoform J9SQF3-12): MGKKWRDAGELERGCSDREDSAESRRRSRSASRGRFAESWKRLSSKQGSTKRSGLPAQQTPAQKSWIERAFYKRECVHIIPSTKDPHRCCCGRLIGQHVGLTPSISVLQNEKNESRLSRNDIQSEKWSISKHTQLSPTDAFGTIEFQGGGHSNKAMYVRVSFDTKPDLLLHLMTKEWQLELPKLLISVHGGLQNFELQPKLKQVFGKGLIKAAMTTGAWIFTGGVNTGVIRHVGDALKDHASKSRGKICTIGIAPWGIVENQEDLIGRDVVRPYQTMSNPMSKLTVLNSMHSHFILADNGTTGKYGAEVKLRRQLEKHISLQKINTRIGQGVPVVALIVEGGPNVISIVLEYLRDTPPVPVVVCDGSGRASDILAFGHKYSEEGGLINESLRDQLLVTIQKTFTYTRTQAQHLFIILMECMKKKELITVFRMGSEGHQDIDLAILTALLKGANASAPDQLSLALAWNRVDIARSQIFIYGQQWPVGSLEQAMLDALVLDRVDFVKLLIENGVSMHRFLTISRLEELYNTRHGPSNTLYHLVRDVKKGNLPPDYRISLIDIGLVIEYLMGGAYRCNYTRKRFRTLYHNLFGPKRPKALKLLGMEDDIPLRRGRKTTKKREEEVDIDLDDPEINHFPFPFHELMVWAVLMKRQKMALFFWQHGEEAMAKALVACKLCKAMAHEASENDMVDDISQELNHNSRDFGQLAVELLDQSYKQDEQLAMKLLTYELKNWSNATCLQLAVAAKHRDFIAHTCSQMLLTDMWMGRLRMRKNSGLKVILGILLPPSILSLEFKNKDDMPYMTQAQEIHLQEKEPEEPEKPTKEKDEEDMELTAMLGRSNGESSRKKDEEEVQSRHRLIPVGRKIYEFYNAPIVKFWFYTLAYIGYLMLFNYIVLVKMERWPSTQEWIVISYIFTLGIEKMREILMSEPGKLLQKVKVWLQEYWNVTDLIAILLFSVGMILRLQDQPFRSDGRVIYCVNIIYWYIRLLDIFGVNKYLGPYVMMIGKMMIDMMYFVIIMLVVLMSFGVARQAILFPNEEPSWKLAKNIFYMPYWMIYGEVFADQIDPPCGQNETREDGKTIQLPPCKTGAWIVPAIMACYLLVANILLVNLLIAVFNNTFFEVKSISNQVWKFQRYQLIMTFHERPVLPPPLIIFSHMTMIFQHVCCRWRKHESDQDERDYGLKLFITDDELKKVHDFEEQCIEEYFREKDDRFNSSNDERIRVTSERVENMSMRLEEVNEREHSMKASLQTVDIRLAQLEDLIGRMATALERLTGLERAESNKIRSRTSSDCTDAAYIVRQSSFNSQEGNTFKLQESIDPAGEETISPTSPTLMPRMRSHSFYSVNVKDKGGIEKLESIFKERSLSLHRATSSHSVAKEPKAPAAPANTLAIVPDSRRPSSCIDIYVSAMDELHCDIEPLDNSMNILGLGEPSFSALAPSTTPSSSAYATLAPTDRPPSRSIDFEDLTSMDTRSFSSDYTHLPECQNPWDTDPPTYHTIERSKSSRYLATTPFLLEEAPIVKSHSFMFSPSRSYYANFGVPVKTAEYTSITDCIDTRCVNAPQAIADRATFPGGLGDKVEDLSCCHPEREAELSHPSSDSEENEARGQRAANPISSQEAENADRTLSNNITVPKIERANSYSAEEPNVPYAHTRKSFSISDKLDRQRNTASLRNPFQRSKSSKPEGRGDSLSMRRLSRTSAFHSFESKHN

| pIC50 [1] | SMILES | other results |
| --- | --- | --- |
| 4.70 to 6.00 | Cc1ncsc1COc1cc(C#N)c2oc(C)c(C(=O)NC3(CO)CCOCC3)c2c1 [compound 188, 7-cyano-N-(4-(hydroxymethyl)tetrahydro-2H-pyran-4-yl)-2-methyl-5-((4-methylthiazol-5-yl)methoxy)benzofuran-3-carboxamide] |  |
|  | Cc1ncsc1COc1ccc2oc(C)c(C(=O)NC3(CO)CNC3)c2c1 [compound 201, N-(3-(hydroxymethyl)azetidin-3-yl)-2-methyl-5-((4-methylthiazol-5-yl)methoxy)benzofuran-3-carboxamide] | pIC50 [2]: 4.70 to 6.00 |
|  | Cc1oc2ccc(OCc3cccnc3C(F)(F)F)cc2c1C(=O)NC1(CO)CNC1 [compound 202, N-(3-(hydroxymethyl)azetidin-3-yl)-2-methyl-5-((2-(trifluoromethyl)pyridin-3-yl)methoxy)benzo-furan-3-carboxamide] | pIC50 [2]: 4.70 to 6.00 |
|  | Cc1oc2ccc(OCc3cccnc3O)c(F)c2c1C(=O)NC1(CO)CCOCC1 [compound 329, 4-fluoro-N-(4-(hydroxymethyl)tetrahydro-2H-pyran-4-yl)-2-methyl-5-((2-oxo-1,2-dihydropyridin-3-yl)methoxy)benzofuran-3-carboxamide] | pIC50 (PS (50 μM) stimulated Ca2+ influx, HEK293, cpds 300-399): 4.70 to 6.00 |
|  | Cc1ncsc1COc1ccc2oc(C)c(C(=O)N(C)C3(C(N)=O)COC3)c2c1 [compound 589, N-(3-carbamoyloxetan-3-yl)-N,2-dimethyl-5-((4-methylthiazol-5-yl)methoxy)benzofuran-3-carboxamide] | pIC50 [3]: ≥ 6.00 |
|  | Cc1ncsc1COc1ccc2oc(C)c(C(=O)N(C)C3(C#N)COC3)c2c1 [compound 599, N-(3-cyanooxetan-3-yl)-N,2-dimethyl-5-((4-methylthiazol-5-yl)methoxy)benzofuran-3-carboxamide] | pIC50 [3]: 4.70 to 6.00 |
| 4.70 to 6.00 | Cc1oc2ccc(OCc3ccoc3)cc2c1C(=O)O [cpd 001, 5-(furan-3-ylmethoxy)-2-methylbenzofuran-3-carboxylic acid] |  |
| ≤ 4.70 | Cc1oc2ccc(OCc3cnco3)cc2c1C(=O)O [cpd 002, 2-methyl-5-(oxazol-5-ylmethoxy)benzofuran-3-carboxylic acid] |  |
| 4.70 to 6.00 | Cc1oc2ccc(OCc3ccccn3)cc2c1C(=O)O [cpd 005, 2-methyl-5-(pyridin-2-ylmethoxy)benzofuran-3-carboxylic acid] |  |
| 4.70 to 6.00 | Cc1oc2ccc(OCc3cccnc3)cc2c1C(=O)O [cpd 006, 2-methyl-5-(pyridin-3-ylmethoxy)benzofuran-3-carboxylic acid] |  |
| 4.70 to 6.00 | Cc1oc2ccc(OCc3cccnn3)cc2c1C(=O)O [cpd 007, 2-methyl-5-(pyridazin-3-ylmethoxy)benzofuran-3-carboxylic acid] |  |
| 4.70 to 6.00 | Cc1oc2ccc(OCc3ccn(C)n3)cc2c1C(=O)O [cpd 009, 2-methyl-5-((1-methyl-1H-pyrazol-3-yl)methoxy)benzofuran-3-carboxylic acid] |  |
| 4.70 to 6.00 | Cc1oc2ccc(OCc3cnn(C)c3)cc2c1C(=O)O [cpd 010, 2-methyl-5-((1-methyl-1H-pyrazol-4-yl)methoxy)benzofuran-3-carboxylic acid] |  |
| 4.70 to 6.00 | Cc1oc2ccc(OCc3ccsc3)cc2c1C(=O)O [cpd 011, 2-methyl-5-(thiophen-3-ylmethoxy)benzofuran-3-carboxylic acid] |  |
| 4.70 to 6.00 | Cc1oc2ccc(OCc3cccs3)cc2c1C(=O)O [cpd 012, 2-methyl-5-(thiophen-2-ylmethoxy)benzofuran-3-carboxylic acid] |  |
| 4.70 to 6.00 | Cc1oc2ccc(OCc3nccs3)cc2c1C(=O)O [cpd 013, 2-methyl-5-(thiazol-2-ylmethoxy)benzofuran-3-carboxylic acid] |  |
| 4.70 to 6.00 | Cc1oc2ccc(OCc3cncs3)cc2c1C(=O)O [cpd 014, 2-methyl-5-(thiazol-5-ylmethoxy)benzofuran-3-carboxylic acid] |  |
| 4.70 to 6.00 | Cc1oc2ccc(OCC3CCOCC3)cc2c1C(=O)O [cpd 015, 2-methyl-5-((tetrahydro-2H-pyran-4-yl)methoxy)benzofuran-3-carboxylic acid] |  |
